# US20060008542A1, “Preparation containing a mixture of picrorrhiza and ginkgo for the relief of disease” (priority 2002, published 2006)
# Experiments:
# [1] = tested on: neutrophil respiratory burst (PMA-stimulated neutrophils of peripheral blood); assay: Dihydrorhodamine flow cytometric assay for the effect of plant extracts on neutrophil respiratory burst on peripheral blood; type: cell-based, human
# Method: 3 Dihydrorhodamine Flow Cytometric Assay for the Effect of Plant Extracts on Neutrophil Respiratory Burst on Peripheral Blood An aliquot (200 μg) of every fraction (obtained by the methods described above) was prepared for assay. The left hand column (Extract number) will be the number used to denote that fraction in subsequent studies and corresponds to the Fraction numbers (“BR0000n”) used above reduced to 1,2, etc., by removal of the “BR00000”. Neutrophils kill organisms they have ingested by exposing them to chemicals known as reactive oxygen species (eg. hydrogen peroxide and hydroxyl ions). These are generated by a process known as the neutrophil respiratory burst. […] Respiratory burst occurs when stimulated neutrophils convert molecular oxygen to oxygen radicals through the activation of NADPH-oxidase. In the dihydrorhodamine (DHR) flow cytometric assay, the respiratory burst is used to produce fluorescent molecules that can be detected by flow cytometry. […] The extent of respiratory burst product can be further quantified using the mean fluorescence intensity of the FL-1 channel (MFI). […] Any background fluorescence (as a further control) is estimated using a tube containing only blood and DHR. […]
# [2] = log P (Partition Ratio between Octanol/Water); details: cucurbitacins present in natural Picrorrhiza kurroa
# Excerpt: (§1) By most polar is meant a component (or Component) having log P of −2 or more negative, where P is the Partition Ratio between Octanol/Water.
# (§2) The Table immediately below lists the cucurbitacins present in natural Picrorrhiza kurroa together with their log P value.
# Excerpt for physchem: as §1, §2
Compound,logP (physchem),other results
CCCCCCCCCCCCCCCCCC(O)CCCCCCCCC (centres unmarked) [10-heptacosanol],≥ 5,–
CCCCCCCCCCCCCCCCCCCC(O)CCCCCCCCC (centres unmarked) [10-nonacosanol],≥ 5,–
CCCCCCCCCCCCCCCCC(O)CCCCCCCCCCCC (centres unmarked) [13-nonacosanol],≥ 5,–
"COc1cc(C(C)=O)ccc1O [Apocynin, 4-hydroxy-3-methoxyacetophenone]",1.6,"inhibition at 300 µg/mL ([1]; Homo sapiens, Neutrophil, apocynin 300 ug/ml, from calibration curve): 45%; Assay Result ([1]; Table 4, apocynin alone): 48"
O=c1cc(-c2ccc(O)c(-c3c(O)cc(O)c4c(=O)cc(-c5ccc(O)cc5)oc34)c2)oc2cc(O)cc(O)c12 [amentoflavone],≥ 5,–
COc1cc(C(C)=O)ccc1O[C@@H]1O[C@H](CO)[C@@H](O)[C@H](O)[C@H]1O [androsin],-1.2,–
OCC1=C[C@@H](O)[C@@H]2C=CO[C@@H](O[C@@H]3O[C@H](CO)[C@@H](O)[C@H](O)[C@H]3O)[C@H]12 [aucubin],≤ -2,–
COc1ccc(-c2cc(=O)c3c(O)cc(O)cc3o2)cc1-c1c(O)cc(O)c2c(=O)cc(-c3ccc(O)cc3)oc12 [bilobetin],≥ 5,–
OC[C@H]1O[C@@H](O[C@@H]2OC=C[C@H]3[C@H](O)[C@@H]4O[C@]4(CO)[C@@H]23)[C@H](O)[C@@H](O)[C@@H]1O [catalpol],≤ -2,–
CC(=O)OC(C)(C)/C=C/C(=O)[C@](C)(O)[C@H]1[C@H](O)C[C@@]2(C)[C@@H]3CC=C4[C@H](C[C@H](O)C(=O)C4(C)C)[C@]3(C)C(=O)C[C@]12C [cucurbitacin B],–,log P [2]: 2.5 ± 0.6
CC(C)(O)/C=C/C(=O)[C@](C)(O)[C@H]1[C@H](O)C[C@@]2(C)[C@@H]3CC=C4[C@@H](C[C@H](O)C(=O)C4(C)C)[C@]3(C)C(=O)C[C@]12C [cucurbitacin D],–,log P [2]: 1.7 ± 0.6
CC(=O)OC(C)(C)/C=C/C(=O)[C@](C)(O)[C@H]1[C@H](O)C[C@@]2(C)[C@@H]3CC=C4[C@@H](C=C(O)C(=O)C4(C)C)[C@]3(C)C(=O)C[C@]12C [cucurbitacin E],–,log P [2]: 3.4 ± 0.6
CC(C)(O)/C=C/C(=O)[C@](C)(O)[C@H]1[C@H](O)C[C@@]2(C)[C@@H]3CC=C4[C@@H](C[C@H](O)[C@@H](O)C4(C)C)[C@]3(C)C(=O)C[C@]12C [cucurbitacin F],–,log P [2]: 1.9 ± 0.6
CC(C)(O)/C=C/C(=O)[C@](C)(O)[C@H]1[C@H](O)C[C@@]2(C)[C@@H]3CC=C4[C@@H](C=C(O)C(=O)C4(C)C)[C@]3(C)C(=O)C[C@]12C [cucurbitacin I],–,log P [2]: 2.5 ± 0.5
CC(C)(O)CCC(=O)[C@](C)(O)[C@H]1[C@H](O)C[C@@]2(C)[C@@H]3CC=C4[C@@H](C[C@H](O)C(=O)C4(C)C)[C@]3(C)C(=O)C[C@]12C [cucurbitacin R],–,log P [2]: 1.9 ± 0.6
COc1cc(O)c2c(=O)cc(-c3ccc(OC)c(-c4c(O)cc(O)c5c(=O)cc(-c6ccc(O)cc6)oc45)c3)oc2c1 [ginkgetin],≥ 5,–
COc1ccc(-c2cc(=O)c3c(O)cc(O)c(-c4cc(-c5cc(=O)c6c(O)cc(O)cc6o5)ccc4OC)c3o2)cc1 [isoginkgetin],≥ 5,–
CCCCCCCCCCCCCCCCCCCCCCCCCCCCC [nonacosane],≥ 5,–
CC[C@H](/C=C/[C@@H](C)[C@H]1CC[C@H]2[C@@H]3CC=C4C[C@@H](O)CC[C@]4(C)[C@H]3CC[C@]12C)C(C)C [stigmasterol],≥ 5,–
CCCCCCCCCCCCCCCC(=O)OCC(COC(=O)CCCCCCCCCCCCCCC)OC(=O)CCCCCCCCCCCCCCC [tripalmitin],≥ 5,–
O=C(/C=C/c1ccc(O)c(O)c1)O[C@H]1[C@@H]2C=CO[C@@H](O[C@@H]3O[C@H](CO)[C@@H](O)[C@H](O)[C@H]3O)[C@@H]2[C@@]2(CO)O[C@@H]12 [verminoside],≤ -2,–
